# Measurements from US20260250272A1, “N-SUBSTITUTED QUINOLINONE COMPOUND, PREPARATION METHOD THEREFOR AND USE THEREOF” (VIGONVITA LIFE SCIENCES CO., LTD., priority 2022, published 2026).
# Assay: Oil solubility test in benzyl benzoate (HPLC)
# Format: physicochemical
# Settings: organic solvent or mixture, thermodynamic from solid, 25° C., shaken 2 h
# Method: The solubility test was performed by quantitative analysis using an external standard method of high-performance liquid chromatography.
# Reference sample solution: 10 mg of reference sample was weighed, placed in a 20 mL volumetric flask, diluted to the scale with 80% acetonitrile, and shaken uniformly.
# Test sample solution: an appropriate amount of sample was dissolved in benzyl benzoate to obtain a saturated solution. The mixture was placed in a shaker and shaken at 25° C. and 800 rpm for 2 h. The sample solution was filtered, and 100 μL of filtrate was added to a 10 mL volumetric flask, diluted to the scale with 80% acetonitrile, and shaken uniformly.
row,SMILES,solubility at 2 h [mg/mL]
1,CC(C)OC(=O)N1C(=O)CCc2ccc(CCN3CCN(c4cc(F)cc5sccc45)CC3)cc21 [Compound 4],25.8
2,"CCCCCCCCCCCCCCCC(=O)OCn1c(=O)ccc2ccc(CCN3CCN(c4cc(F)cc5sccc45)CC3)cc21 [Compound 9, (7-(2-(4-(6-Fluorobenzo[b]thiophen-4-yl)piperazin-1-yl)ethyl)-2-oxoquinolin-1(2H)-yl)methyl palmitate]",> 200
3,"CCCCCCCCCC(=O)OCn1c(=O)ccc2ccc(CCN3CCN(c4cc(F)cc5sccc45)CC3)cc21 [Compound 10, (7-(2-(4-(6-Fluorobenzo[b]thiophen-4-yl)piperazin-1-yl)ethyl)-2-oxoquinolin-1(2H)-yl)methyl decanoate]",> 200
4,"CCCCCCCCCCCC(=O)OC(C)N1C(=O)CCc2ccc(CCN3CCN(c4cc(F)cc5sccc45)CC3)cc21 (stereo not drawn) [Compound 13, 1-(7-(2-(4-(6-Fluorobenzo[b]thiophen-4-yl)piperazin-1-yl)ethyl)-2-oxo-3,4-dihydroquinolin-1(2H)-yl)ethyl dodecanoate]",> 200
5,"CCCCCCCCCCCOC(=O)OCN1C(=O)CCc2ccc(CCN3CCN(c4cc(F)cc5sccc45)CC3)cc21 [Compound 14, (7-(2-(4-(6-Fluorobenzo[b]thiophen-4-yl)piperazin-1-yl)ethyl)-2-oxo-3,4-dihydroquinolin-1(2H)-yl) methyl undecyl carbonate]",> 200
6,"CCCCCCCCCCCCCCCC(=O)OC(C)N1C(=O)CCc2ccc(CCN3CCN(c4cc(F)cc5sccc45)CC3)cc21 (stereo not drawn) [Compound 15, 1-(7-(2-(4-(6-Fluorobenzo[b]thiophen-4-yl)piperazin-1-yl)ethyl)-2-oxo-3,4-dihydroquinolin-1(2H)-yl) ethyl palmitate]",> 200
7,"CCCCCCCOC(=O)OCN1C(=O)CCc2ccc(CCN3CCN(c4cc(F)cc5sccc45)CC3)cc21 [Compound 25, (7-(2-(4-(6-Fluorobenzo[b]thiophen-4-yl)piperazin-1-yl)ethyl)-2-oxo-3,4-dihydroquinolin-1(2H)-yl) methyl heptyl carbonate]",> 200
8,"CCCCCCCCOC(=O)OCN1C(=O)CCc2ccc(CCN3CCN(c4cc(F)cc5sccc45)CC3)cc21 [Compound 26, (7-(2-(4-(6-Fluorobenzo[b]thiophen-4-yl)piperazin-1-yl)ethyl)-2-oxo-3,4-dihydroquinolin-1(2H)-yl) methyl octyl carbonate]",> 200
9,"CCCCCCCCCOC(=O)OCN1C(=O)CCc2ccc(CCN3CCN(c4cc(F)cc5sccc45)CC3)cc21 [Compound 27, (7-(2-(4-(6-Fluorobenzo[b]thiophen-4-yl)piperazin-1-yl)ethyl)-2-oxo-3,4-dihydroquinolin-1(2H)-yl) methyl nonyl carbonate]",> 200
10,"CCCCCCCCCCOC(=O)OCN1C(=O)CCc2ccc(CCN3CCN(c4cc(F)cc5sccc45)CC3)cc21 [Compound 28, Decyl ((7-(2-(4-(6-fluorobenzo[b]thiophen-4-yl)piperazin-1-yl)ethyl)-2-oxo-3,4-dihydroquinolin-1(2H)-yl)methyl) carbonate]",> 200
11,"CCCCCCCCCCCCOC(=O)OCN1C(=O)CCc2ccc(CCN3CCN(c4cc(F)cc5sccc45)CC3)cc21 [Compound 29, Dodecyl ((7-(2-(4-(6-fluorobenzo[b]thiophen-4-yl)piperazin-1-yl)ethyl)-2-oxo-3,4-dihydroquinolin-1(2H)-yl)methyl) carbonate]",> 200
12,"CCCCCCCCCCCCCCOC(=O)OCN1C(=O)CCc2ccc(CCN3CCN(c4cc(F)cc5sccc45)CC3)cc21 [Compound 30, (7-(2-(4-(6-Fluorobenzo[b]thiophen-4-yl)piperazin-1-yl)ethyl)-2-oxo-3,4-dihydroquinolin-1(2H)-yl) methyl tetradecyl carbonate]",> 200
13,"CCCCCCCCCCCCCCCCOC(=O)OCN1C(=O)CCc2ccc(CCN3CCN(c4cc(F)cc5sccc45)CC3)cc21 [Compound 31, (7-(2-(4-(6-Fluorobenzo[b]thiophen-4-yl)piperazin-1-yl)ethyl)-2-oxo-3,4-dihydroquinolin-1(2H)-yl)methyl hexadecyl carbonate]",> 200
14,"CCCCCCCCCCCC(=O)OCn1c(=O)cc(F)c2ccc(CCN3CCN(c4cc(F)cc5sccc45)CC3)cc21 [Compound 38, (4-Fluoro-7-(2-(4-(6-fluorobenzo[b]thiophen-4-yl)piperazin-1-yl)ethyl)-2-oxoquinolin-1(2H)-yl)methyl dodecanoate]",> 200
15,"CCCCCCCCCCCC(=O)OCN1C(=O)CC(C)(C)c2ccc(CCN3CCN(c4cc(F)cc5sccc45)CC3)cc21 [Compound 43, (7-(2-(4-(6-Fluorobenzo[b]thiophen-4-yl)piperazin-1-yl)ethyl)-4,4-dimethyl-2-oxo-3,4-dihydroquinolin-1(2H)-yl)methyl dodecanoate]",> 200

# Second part, the molecule after the results:
row,solubility at 2 h [mg/mL],SMILES
1,> 200,"[2H]c1cc(=O)n(COC(=O)CCCCCCCCCCC)c2cc(CCN3CCN(c4cc(F)cc5sccc45)CC3)ccc12 [Compound 51, (7-(2-(4-(6-Fluorobenzo[b]thiophen-4-yl)piperazin-1-yl)ethyl)-2-oxoquinolin-1(2H)-yl-4-d)methyl dodecanoate]"
2,> 200,"CCCCCCCC(=O)OCN1C(=O)CCc2ccc(CCN3CCN(c4cc(F)cc5sccc45)CC3)cc21 [Compound 61, (7-(2-(4-(6-Fluorobenzo[b]thiophen-4-yl)piperazin-1-yl)ethyl)-2-oxo-3,4-dihydroquinolin-1(2H)-yl) methyl octanoate]"
3,> 200,"CCCCCCCCC(=O)OCN1C(=O)CCc2ccc(CCN3CCN(c4cc(F)cc5sccc45)CC3)cc21 [Compound 62, (7-(2-(4-(6-Fluorobenzo[b]thiophen-4-yl)piperazin-1-yl)ethyl)-2-oxo-3,4-dihydroquinolin-1(2H)-yl) methyl nonanoate]"
4,> 200,"CCCCCCCCCCC(=O)OCN1C(=O)CCc2ccc(CCN3CCN(c4cc(F)cc5sccc45)CC3)cc21 [Compound 63, (7-(2-(4-(6-Fluorobenzo[b]thiophen-4-yl)piperazin-1-yl)ethyl)-2-oxo-3,4-dihydroquinolin-1(2H)-yl) methyl undecanoate]"
5,> 200,"CCCCCCCCCCCCC(=O)OCN1C(=O)CCc2ccc(CCN3CCN(c4cc(F)cc5sccc45)CC3)cc21 [Compound 64, (7-(2-(4-(6-Fluorobenzo[b]thiophen-4-yl)piperazin-1-yl)ethyl)-2-oxo-3,4-dihydroquinolin-1(2H)-yl) methyl tridecanoate]"
6,> 200,"CCCCCCCCCCCCCC(=O)OCN1C(=O)CCc2ccc(CCN3CCN(c4cc(F)cc5sccc45)CC3)cc21 [Compound 65, (7-(2-(4-(6-Fluorobenzo[b]thiophen-4-yl)piperazin-1-yl)ethyl)-2-oxo-3,4-dihydroquinolin-1(2H)-yl) methyl tetradecanoate]"
7,> 200,"CCCCCCCCCCCCCCC(=O)OCN1C(=O)CCc2ccc(CCN3CCN(c4cc(F)cc5sccc45)CC3)cc21 [Compound 66, (7-(2-(4-(6-Fluorobenzo[b]thiophen-4-yl)piperazin-1-yl)ethyl)-2-oxo-3,4-dihydroquinolin-1(2H)-yl) methyl pentadecanoate]"
8,> 200,"CCCCCCCCCCCCCCCCC(=O)OCN1C(=O)CCc2ccc(CCN3CCN(c4cc(F)cc5sccc45)CC3)cc21 [Compound 67, (7-(2-(4-(6-Fluorobenzo[b]thiophen-4-yl)piperazin-1-yl)ethyl)-2-oxo-3,4-dihydroquinolin-1(2H)-yl) methyl heptadecanoate]"
9,> 200,"CCCCCCCCCCCCCCCCCC(=O)OCN1C(=O)CCc2ccc(CCN3CCN(c4cc(F)cc5sccc45)CC3)cc21 [Compound 68, (7-(2-(4-(6-Fluorobenzo[b]thiophen-4-yl)piperazin-1-yl)ethyl)-2-oxo-3,4-dihydroquinolin-1(2H)-yl) methyl stearate]"
10,> 200,"CCCCCCCCCCCCCCCCCCCC(=O)OCN1C(=O)CCc2ccc(CCN3CCN(c4cc(F)cc5sccc45)CC3)cc21 [Compound 69, (7-(2-(4-(6-Fluorobenzo[b]thiophen-4-yl)piperazin-1-yl)ethyl)-2-oxo-3,4-dihydroquinolin-1(2H)-yl) methyl icosanoate]"
11,> 200,"CCCCCCCCCCNC(=O)OCN1C(=O)CCc2ccc(CCN3CCN(c4cc(F)cc5sccc45)CC3)cc21 [Compound 71, (7-(2-(4-(6-Fluorobenzo[b]thiophen-4-yl)piperazin-1-yl)ethyl)-2-oxo-3,4-dihydroquinolin-1(2H)-yl) methyl decylcarbamate]"
12,> 200,"C=CCCCCCCCCC(=O)OCN1C(=O)CCc2ccc(CCN3CCN(c4cc(F)cc5sccc45)CC3)cc21 [Compound 72, (7-(2-(4-(6-Fluorobenzo[b]thiophen-4-yl)piperazin-1-yl)ethyl)-2-oxo-3,4-dihydroquinolin-1(2H)-yl) methyl undec-10-enoate]"
13,> 200,"CCCCCCCC/C=C\CCCCCCCC(=O)OCN1C(=O)CCc2ccc(CCN3CCN(c4cc(F)cc5sccc45)CC3)cc21 [Compound 73, (7-(2-(4-(6-Fluorobenzo[b]thiophen-4-yl)piperazin-1-yl)ethyl)-2-oxo-3,4-dihydroquinolin-1(2H)-yl) methyl oleate]"
14,> 200,"CCCCCCCCCCCCCCCCCCCCCC(=O)OCN1C(=O)CCc2ccc(CCN3CCN(c4cc(F)cc5sccc45)CC3)cc21 [Compound 74, (7-(2-(4-(6-fluorobenzo[b]thiophen-4-yl)piperazin-1-yl)ethyl)-2-oxo-3,4-dihydroquinolin-1(2H)-yl)methyl docosanoate]"
15,> 200,"CCCCCCCCCCCCCCCCCCCCCCCC(=O)OCN1C(=O)CCc2ccc(CCN3CCN(c4cc(F)cc5sccc45)CC3)cc21 [Compound 75, (7-(2-(4-(6-Fluorobenzo[b]thiophen-4-yl)piperazin-1-yl)ethyl)-2-oxo-3,4-dihydroquinolin-1(2H)-yl) methyl tetracosanoate]"
